Results on 20 compounds are retold here after ChEMBL document CHEMBL1909046, “DrugMatrix in vitro pharmacology data”.

Experiment [1] is described as follows: DRUGMATRIX: Platelet-Derived Growth Factor (PDGF) radioligand binding (ligand: [125I] PDGF). It is filed as cell-based. The following applies: nih3t3; Not Active = under 50% inhibition at 10 µM.
The target in experiment [2] is 5-hydroxytryptamine receptor 2B (Homo sapiens, UniProt P41595). It is filed as cell membranes, CHO-K1, Membrane. Also: in other assays of this panel Not Active means under 50% inhibition at 10 µM.
Experiment [3] can be described thus: DRUGMATRIX: Phosphodiesterase PDE4 enzyme inhibition (substrate: [3H]cAMP + cAMP). The following applies: u-937, Not Active = under 50% inhibition at 10 µM.
The target in a further experiment is T1, Adenosine receptor A3 (Homo sapiens, UniProt P0DMS8).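 Also: radioligand binding assay with AB-MECA serving as the labeled ligand; in other assays of this panel Not Active means under 50% inhibition at 10 µM.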
T1 sequence (P0DMS8 whole entry): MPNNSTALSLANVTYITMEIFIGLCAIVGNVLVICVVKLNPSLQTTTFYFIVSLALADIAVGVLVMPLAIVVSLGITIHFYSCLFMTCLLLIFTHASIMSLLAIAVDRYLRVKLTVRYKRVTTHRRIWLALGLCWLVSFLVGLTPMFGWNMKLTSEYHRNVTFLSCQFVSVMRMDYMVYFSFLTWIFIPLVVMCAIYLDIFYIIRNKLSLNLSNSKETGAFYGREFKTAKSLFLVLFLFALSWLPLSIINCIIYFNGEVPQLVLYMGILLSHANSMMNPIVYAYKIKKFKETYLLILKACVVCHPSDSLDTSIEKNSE
It is filed as cell membranes, CHO-K1, Membrane.

The nature of experiment [4]: DRUGMATRIX: GABAA, Chloride Channel, TBOB radioligand binding (ligand: [3H] TBOB). In kind it is cell membranes, Rattus norvegicus, Wistar, Cerebral cortex, Membrane. The settings on record: Not Active = under 50% inhibition at 10 µM.
For experiment [5], the target named is Sodium-dependent dopamine transporter (Homo sapiens, UniProt Q01959). Kind of experiment: DRUGMATRIX: Dopamine Transporter radioligand binding (ligand: [125I] RTI-55). It is filed as cell membranes, CHO-K1, Membrane. The settings on record: Not Active = under 50% inhibition at 10 µM; for Ki: read-out: Ki.
Sequence of Sodium-dependent dopamine transporter (Q01959 whole entry): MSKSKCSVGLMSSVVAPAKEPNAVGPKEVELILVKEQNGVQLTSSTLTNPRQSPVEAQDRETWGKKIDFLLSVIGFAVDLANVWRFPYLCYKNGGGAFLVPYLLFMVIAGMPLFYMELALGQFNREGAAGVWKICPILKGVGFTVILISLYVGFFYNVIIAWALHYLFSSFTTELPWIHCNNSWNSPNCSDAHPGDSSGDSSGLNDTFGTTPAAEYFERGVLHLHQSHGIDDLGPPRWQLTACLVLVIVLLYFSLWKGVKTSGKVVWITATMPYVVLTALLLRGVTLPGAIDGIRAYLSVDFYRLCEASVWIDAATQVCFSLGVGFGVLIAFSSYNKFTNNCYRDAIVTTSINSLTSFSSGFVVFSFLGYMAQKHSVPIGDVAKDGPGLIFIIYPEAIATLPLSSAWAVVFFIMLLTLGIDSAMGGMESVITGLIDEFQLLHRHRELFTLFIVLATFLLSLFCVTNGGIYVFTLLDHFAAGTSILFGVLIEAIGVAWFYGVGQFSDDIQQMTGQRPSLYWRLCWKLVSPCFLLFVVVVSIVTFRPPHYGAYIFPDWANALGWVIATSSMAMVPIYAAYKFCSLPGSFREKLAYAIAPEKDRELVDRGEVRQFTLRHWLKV

Sequence of 5-hydroxytryptamine receptor 2B (P41595 whole entry): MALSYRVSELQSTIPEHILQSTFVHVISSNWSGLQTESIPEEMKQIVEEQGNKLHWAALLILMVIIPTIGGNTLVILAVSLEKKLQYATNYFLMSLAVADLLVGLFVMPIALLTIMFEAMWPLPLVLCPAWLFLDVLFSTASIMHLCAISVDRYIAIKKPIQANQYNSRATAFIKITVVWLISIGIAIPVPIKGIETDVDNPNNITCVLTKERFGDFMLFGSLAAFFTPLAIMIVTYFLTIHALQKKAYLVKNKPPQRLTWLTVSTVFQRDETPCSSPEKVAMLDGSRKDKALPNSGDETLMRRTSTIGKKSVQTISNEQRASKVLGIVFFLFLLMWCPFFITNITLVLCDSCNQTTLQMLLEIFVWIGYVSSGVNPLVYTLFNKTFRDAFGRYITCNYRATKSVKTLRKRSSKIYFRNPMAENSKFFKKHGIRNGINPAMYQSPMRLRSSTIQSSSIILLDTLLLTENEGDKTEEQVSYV

By IC50 is commonly meant the concentration that gives 50% inhibition. In general, Ki refers to a dissociation constant, usually derived from enzyme kinetics or from competition with a known ligand. As for `NC(=O)N1c2ccccc2C=Cc2ccccc21` [CARBAMAZEPINE], the IC50 entry (in experiment [1]; in experiment [2] (cho-k1); in experiment [3]; against Adenosine receptor A3 (cho-k1); in experiment [4]; in experiment [5] (cho-k1)) was “Not Active” each time. Also, the inhibition constant Ki result in experiment [1], in experiment [3] and in experiment [4] was “Not Active” each time.

`CCOC(=O)n1ccn(C)c1=S` [CARBIMAZOLE]: the IC50 entry (in experiment [1]; in experiment [2] (cho-k1); in experiment [3]; at Adenosine receptor A3 (cho-k1); in experiment [4]; in experiment [5] (cho-k1)) was “Not Active” throughout. Further, the inhibition constant (Ki) result in experiment [1], in experiment [3] and in experiment [4] was “Not Active” each time.

As to `Oc1ccccc1O` [CATECHOL], the half-inhibitory concentration (IC50) result (in experiment [1]; in experiment [2] (cho-k1); in experiment [3]; at Adenosine receptor A3 (cho-k1); in experiment [4]; in experiment [5] (cho-k1)) was “Not Active” throughout. Moreover, the Ki result in experiment [1], in experiment [3] and in experiment [4] was “Not Active” throughout.

As for `CO[C@@]1(NC(=O)CSCC#N)C(=O)N2C(C(=O)O)=C(CSc3nnnn3C)CS[C@@H]21` [CEFMETAZOLE], the IC50 result (in experiment [1]; in experiment [2] (cho-k1); in experiment [3]; on Adenosine receptor A3 (cho-k1); in experiment [4]; in experiment [5] (cho-k1)) was “Not Active” throughout. Also, the Ki result in experiment [1], in experiment [3] and in experiment [4] was “Not Active” throughout.

In the case of `CN(C(=O)CCCOc1ccc2[nH]c(=O)ccc2c1)C1CCCCC1` [CILOSTAMIDE], the concentration for half-maximal inhibition (IC50) entry (in experiment [1]; in experiment [2] (cho-k1); in experiment [3]; against Adenosine receptor A3 (cho-k1); in experiment [4]; in experiment [5] (cho-k1)) was “Not Active” throughout. Moreover, the inhibition constant (Ki) result in experiment [1], in experiment [3] and in experiment [4] was “Not Active” each time.

Turning to `CC(C)(Oc1ccc(C2CC2(Cl)Cl)cc1)C(=O)O` (stereo not drawn) [CIPROFIBRATE], the IC50 result (in experiment [1]; in experiment [2] (cho-k1); in experiment [3]; on Adenosine receptor A3 (cho-k1); in experiment [4]; in experiment [5] (cho-k1)) was “Not Active” each time. Moreover, the Ki result in experiment [1], in experiment [3] and in experiment [4] was “Not Active” throughout.

With `Nc1nc(Cl)nc2c1ncn2[C@H]1C[C@H](O)[C@@H](CO)O1` [CLADRIBINE], the IC50 result was “Not Active” in experiment [1]; “Not Active” in experiment [2] (cho-k1); 3.62 µM in experiment [3] (read-out: IC50); “Not Active” on Adenosine receptor A3 (cho-k1); “Not Active” in experiment [4]; “Not Active” in experiment [5] (cho-k1). For the same compound, the Ki entry in experiment [1] and in experiment [4] was “Not Active” in each case.

Regarding `CC[C@H]1OC(=O)[C@H](C)[C@@H](O[C@H]2C[C@@](C)(OC)[C@@H](O)[C@H](C)O2)[C@H](C)[C@@H](O[C@@H]2O[C@H](C)C[C@H](N(C)C)[C@H]2O)[C@](C)(OC)C[C@@H](C)C(=O)[C@H](C)[C@@H](O)[C@]1(C)O` [CLARITHROMYCIN], the IC50 entry (in experiment [1]; in experiment [2] (cho-k1); in experiment [3]; against Adenosine receptor A3 (cho-k1); in experiment [4]; in experiment [5] (cho-k1)) was “Not Active” in each case. Moreover, the Ki entry in experiment [1], in experiment [3] and in experiment [4] was “Not Active” throughout.

For the compound `CCC[C@@H]1C[C@@H](C(=O)N[C@@H]([C@H]2O[C@H](SC)[C@H](O)[C@@H](O)[C@H]2O)[C@H](C)Cl)N(C)C1` [CLINDAMYCIN], the IC50 result (in experiment [1]; in experiment [2] (cho-k1); in experiment [3]; on Adenosine receptor A3 (cho-k1); in experiment [4]; in experiment [5] (cho-k1)) was “Not Active” in each case. Also, the inhibition constant Ki entry in experiment [1], in experiment [3] and in experiment [4] was “Not Active” throughout.

Turning to `O=C(O)c1cc(=O)c2c(OCC(O)COc3cccc4oc(C(=O)O)cc(=O)c34)cccc2o1` [CROMOLYN], the IC50 entry (in experiment [1]; in experiment [2] (cho-k1); in experiment [3]; against Adenosine receptor A3 (cho-k1); in experiment [4]; in experiment [5] (cho-k1)) was “Not Active” throughout. The Ki result in experiment [1], in experiment [3] and in experiment [4] was “Not Active” throughout.

With `O=P1(N(CCCl)CCCl)NCCCO1` (stereo not drawn) [CYCLOPHOSPHAMIDE ANHYDROUS], the IC50 result (in experiment [1]; in experiment [2] (cho-k1); in experiment [3]; on Adenosine receptor A3 (cho-k1); in experiment [4]; in experiment [5] (cho-k1)) was “Not Active” throughout. Moreover, the Ki result in experiment [1], in experiment [3] and in experiment [4] was “Not Active” each time.

In the case of `CC(=O)O[C@]1(C(C)=O)CC[C@H]2[C@@H]3C=C(Cl)C4=CC(=O)[C@@H]5C[C@@H]5[C@]4(C)[C@H]3CC[C@@]21C` [CYPROTERONE ACETATE], the IC50 result (in experiment [1]; in experiment [2] (cho-k1); in experiment [3]; against Adenosine receptor A3 (cho-k1); in experiment [4]; in experiment [5] (cho-k1)) was “Not Active” throughout. Moreover, the Ki result in experiment [1], in experiment [3] and in experiment [4] was “Not Active” throughout.

With `Nc1nc(N)nc(NC2CC2)n1` [CYROMAZINE], the IC50 entry (in experiment [1]; in experiment [2] (cho-k1); in experiment [3]; against Adenosine receptor A3 (cho-k1); in experiment [4]; in experiment [5] (cho-k1)) was “Not Active” in each case. Also, the inhibition constant Ki entry in experiment [1], in experiment [3] and in experiment [4] was “Not Active” in each case.

Turning to `C#C[C@]1(O)CC[C@H]2[C@@H]3CCC4=Cc5oncc5C[C@]4(C)[C@H]3CC[C@@]21C` [DANAZOL], the IC50 result in experiment [1] was “Not Active”; in experiment [2] (cho-k1) it was “Not Active”; in experiment [3] it was “Not Active”; on Adenosine receptor A3 (read-out: IC50), 11.2 µM; in experiment [4], “Not Active”; in experiment [5] (read-out: IC50) it was 6.84 µM. In addition, the inhibitory constant (Ki) entry in experiment [1] is “Not Active”; in experiment [3], “Not Active”; on Adenosine receptor A3 (read-out: Ki), 6.31 µM; in experiment [4], “Not Active”; in experiment [5], 5.44 µM.

In the case of `CCN[C@@H](C)Cc1cccc(C(F)(F)F)c1` [DEXFENFLURAMINE], the IC50 entry (in experiment [1]; in experiment [2] (cho-k1); in experiment [3]; against Adenosine receptor A3 (cho-k1); in experiment [4]; in experiment [5] (cho-k1)) was “Not Active” in each case. For the same compound, the inhibitory constant (Ki) result in experiment [1], in experiment [3] and in experiment [4] was “Not Active” in each case.

On to `C[C@H](C(=O)O)c1cccc(C(=O)c2ccccc2)c1` [DEXKETOPROFEN], for which the concentration for half-maximal inhibition (IC50) result (in experiment [1]; in experiment [2] (cho-k1); in experiment [3]; against Adenosine receptor A3 (cho-k1); in experiment [4]; in experiment [5] (cho-k1)) was “Not Active” throughout. Further, the inhibition constant (Ki) result in experiment [1], in experiment [3] and in experiment [4] was “Not Active” in each case.

`CN1C(=O)CN=C(c2ccccc2)c2cc(Cl)ccc21` [DIAZEPAM]: the 50% inhibitory concentration (IC50) result (in experiment [1]; in experiment [2] (cho-k1); in experiment [3]; on Adenosine receptor A3 (cho-k1); in experiment [4]; in experiment [5] (cho-k1)) was “Not Active” each time. Also, the inhibition constant (Ki) result in experiment [1], in experiment [3] and in experiment [4] was “Not Active” throughout.

Take `CN1C[C@H](C(=O)N[C@]2(C)O[C@@]3(O)[C@@H]4CCCN4C(=O)[C@H](Cc4ccccc4)N3C2=O)C[C@@H]2c3cccc4[nH]cc(c34)C[C@H]21` [DIHYDROERGOTAMINE]: the IC50 entry was “Not Active” in experiment [1]; 0.0068 µM in experiment [2] (read-out: IC50); “Not Active” in experiment [3]; “Not Active” against Adenosine receptor A3 (cho-k1); “Not Active” in experiment [4]; “Not Active” in experiment [5] (cho-k1). Moreover, the inhibition constant (Ki) result in experiment [1] is “Not Active”; in experiment [2] (read-out: Ki) it was 0.00433 µM; in experiment [3], “Not Active”; in experiment [4], “Not Active”.

As for `Cc1c(N(C)CS(=O)(=O)[O-])c(=O)n(-c2ccccc2)n1C.[Na+]` [DIPYRONE SODIUM], the 50% inhibitory concentration (IC50) entry (in experiment [1]; in experiment [2] (cho-k1); in experiment [3]; on Adenosine receptor A3 (cho-k1); in experiment [4]; in experiment [5] (cho-k1)) was “Not Active” in each case. The inhibitory constant (Ki) result in experiment [1], in experiment [3] and in experiment [4] was “Not Active” each time.

Consider `CC(CCc1ccc(O)cc1)NCCc1ccc(O)c(O)c1` (stereo not drawn) [DOBUTAMINE], for which the IC50 result in experiment [1] was “Not Active”; in experiment [2] (cho-k1), “Not Active”; in experiment [3], “Not Active”; against Adenosine receptor A3 (cho-k1), “Not Active”; in experiment [4], “Not Active”; in experiment [5] (read-out: IC50) it was 0.155 µM. For the same compound, the Ki entry is “Not Active” in experiment [1], “Not Active” in experiment [3], “Not Active” in experiment [4] and 0.123 µM in experiment [5].
